Laboratory results from article PMC2933614, “Quantitative in vitro and in vivo pharmacological profile of CE-178253, a potent and selective cannabinoid type 1 (CB1) Receptor Antagonist” (BMC Pharmacology, 2010).

Legend:
[1] = Four day chow-fed rat food intake and body weight study; assay type: in vivo; conditions: chow-fed rats
Protocol: CE-178253 was evaluated in 4-day chow-fed and DIO S-D rat studies. Male 12-16 week old S-D rats which had been maintained on regular chow were singly housed and acclimated to handling and dosing and two days of food intake were recorded to establish baseline food intake values before dosing was initiated. The animals were randomly sorted and assigned to treatment groups (n = 7-8 per group). Two studies were performed. In study 1 (age = 12 weeks) the mean starting weight of all animals was 370 ± 6 g. In study 2 (age = 16 weeks) the mean starting weight of all animals was 431 ± 11 g. Rats were dosed (2 mls/kg) with veh. or CE-178253 according to body weight. FI and BW were recorded daily.
CE-178253 was also evaluated in chow-fed rats in a 4 day FI and BW study. Rats were treated once daily with veh. (0.5% MC) or CE-178253. In the first study the same doses used in the DIO study were used to compare FI and BW efficacy. […] CE-178253 was clearly efficacious in acute food intake studies in chow-fed rats up to 12 hours (Figure 3). A comparison of 24 hr FI in chow-fed and DIO rats yielded different efficacy in response to CE-178253 treatment. The 1 mg/kg dose yielded an 8% decrease in 24 hr FI compared to veh-treated animals (p = 0.053). […] Initial and final body weights of veh-treated rats were 371 ± 7 g and 390 ± 7 g (n = 8), respectively. Initial and final body weights of 0.3 mg/kg CE-178253-treated rats were 374 ± 7 g and 388 ± 9 g, respectively. Initial and final body weights of 1 mg/kg CE-178253-treated rats were 373 ± 7 g and 390 ± 9 g, (respectively.
Based on the weak efficacy observed at the 0.3 and 1 mg/kg doses the study was repeated using higher doses of CE-178253 (Figures 7A and 7B). At 3 and 10 mg/kg (QD, p.o.) doses, statistically significant decreases in FI and BW were observed. Initial and final body weights of veh.-treated rats were 435 ± 11 g and 451 ± 12 g (n = 8), respectively, […]. Initial and final body weights of 3 mg/kg CE-178253-treated rats were 436 ± 9 g and 427 ± 9 g, respectively, a 2% decline. Initial and final body weights of 10 mg/kg CE-178253-treated rats were 435 ± 11 g and 430 ± 10 g, respectively, […]. […] Thus, as has been reported for other CB1 receptor antagonists it is likely that DIO rats are more sensitive to the anorectic and weight loss effect of CE-178253.

human CB2 receptor = molecular target: T1, human CB2 receptor (Homo sapiens, UniProt P34972); test: Competition radioligand binding, human CB2
T1 construct: expressed in transfected cells
Protocol: (§1) HEK293 (CB1) or CHO (CB1 and CB2) cells (ATCC) were stably transfected with the human CB1 or CB2 receptors. Rat brain, and recombinant CB1 and CB2 and membranes were prepared as described. A Pierce™ BCA kit was used to determine protein concentrations.
(§2) 10 μg of membranes per well from human CB1 and CB 2 receptor transfected cells and rat brain was used in the assay. The plates were covered and placed in an incubator at 30°C for 60 min. At the end of the incubation period 125 μl of stop buffer (10% BSA plus TME) was added to the reaction plate. The plates were then harvested onto GF/C filter plates (Perkin Elmer Life Sciences) presoaked in BSA (5 mg/ml) plus TME. Each filter was washed twice with TME and dried overnight. In the morning the filters were counted on a Wallac Trilux™ counter.
(§3) Saturation and competition radioligand binding assays were used to characterize membranes prepared from human recombinant CB1 and CB2 and rat brain membranes.

[2] = molecular target: T2, rat brain membranes (predominantly CB1) (Rattus norvegicus, UniProt P20272); test: Competition radioligand binding, rat brain membranes
T2 construct: In rat membranes prepared from whole brain; from tissue; host or cells: rat whole brain membranes
Protocol: as §1, §2, §3

[3] = Spontaneous nocturnal food intake; assay type: in vivo, rat; conditions: for Decrease in FI compared to veh.: 2 hr time point
Text: All animal studies were approved by the Institutional Animal Care and Use Committee. Male Sprague Dawley rats on normal chow (8 weeks old, 250-300 g on arrival, 300-350 g on test day) were obtained from Charles River. After arrival, animals were individually housed and placed on powdered rat chow. Rats were maintained on a 12-hr light/dark cycle and received food and water ad libitum. In all studies CE-178253 and veh (0.5% methyl cellulose) administration to rats and mice was by oral gavage.
For the spontaneous, nocturnal FI assay, rats were administered veh. (0.5% methyl cellulose) or CE-178253 30 min prior to the start of the dark phase. Food consumption was monitored with electronic scales, and consumption was recorded every 10 min for 12 hr using an automated FI system (Columbus Instruments, Columbus, OH).
The first FI model used for determining anorectic efficacy of CE-178253 was spontaneous nocturnal feeding in rats. In rodents, most feeding activity takes place during the dark phase (nocturnal feeding cycle). In this model, male S-D rats were orally administered compound 30 min prior to the onset of the nocturnal phase. […] In addition, the effect of treatment on hourly FI was also assessed. […] No other time points in the interval analysis reach statistical significance. […] Cumulative food intake at the 2.5 hr time point was 3.2 ± 0.3, 2.4 ± 0.2, 0.5 ± 0.1 and 0.2 ± 0.1 in the veh, 0.3 mg/kg, 1 mg/kg, 3 mg/kg treated rats, respectively.

T1 sequence (P34972 whole entry): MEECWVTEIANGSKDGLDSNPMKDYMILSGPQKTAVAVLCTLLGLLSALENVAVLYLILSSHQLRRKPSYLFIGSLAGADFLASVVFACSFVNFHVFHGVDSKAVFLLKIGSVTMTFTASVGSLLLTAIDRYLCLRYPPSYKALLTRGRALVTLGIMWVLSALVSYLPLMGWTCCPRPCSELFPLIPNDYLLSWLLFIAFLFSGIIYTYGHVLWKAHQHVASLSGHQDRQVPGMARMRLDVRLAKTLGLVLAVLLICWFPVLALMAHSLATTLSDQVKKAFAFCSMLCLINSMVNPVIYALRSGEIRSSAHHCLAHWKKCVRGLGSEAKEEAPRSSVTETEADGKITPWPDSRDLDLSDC
T2 sequence (P20272 whole entry): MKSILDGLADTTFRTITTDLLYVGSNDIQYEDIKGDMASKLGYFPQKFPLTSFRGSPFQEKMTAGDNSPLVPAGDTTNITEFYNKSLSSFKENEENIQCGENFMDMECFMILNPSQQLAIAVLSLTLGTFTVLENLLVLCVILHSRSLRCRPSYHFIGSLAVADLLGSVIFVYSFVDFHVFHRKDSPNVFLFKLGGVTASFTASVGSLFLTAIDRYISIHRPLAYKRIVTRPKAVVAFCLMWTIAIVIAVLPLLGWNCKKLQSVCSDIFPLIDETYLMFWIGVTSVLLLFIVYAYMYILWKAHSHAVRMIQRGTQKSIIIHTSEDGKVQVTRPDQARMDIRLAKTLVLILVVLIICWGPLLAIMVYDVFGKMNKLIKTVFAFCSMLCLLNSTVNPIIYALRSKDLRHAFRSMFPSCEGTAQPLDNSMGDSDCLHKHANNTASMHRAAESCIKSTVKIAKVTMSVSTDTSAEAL

With `CCNC1(C(N)=O)CN(c2nc(C)nc3c(-c4ccc(Cl)cc4)c(-c4ccccc4Cl)nn23)C1` [CE-178253] the Final body weight ([1]; 0.3 mg/kg, 4 day, initial 374 ± 7 g) was 388 ± 9 g, the Final body weight ([1]; 1 mg/kg, 4 day, initial 373 ± 7 g) was 390 ± 9 g and the “Decrease in 24 hr FI compared to veh-treated animals” value ([1]; 1 mg/kg, p = 0.053) was 8%. For the same compound, the “Decline in body weight, initial to final” value ([1]; 3 mg/kg QD p.o., 4 day) was 2%, the Final body weight ([1]; 3 mg/kg QD p.o., 4 day, initial 436 ± 9 g) was 427 ± 9 g and the “Increase in body weight, initial to final” value ([1]; 10 mg/kg QD p.o., 4 day) was 1%. The Final body weight ([1]; 10 mg/kg QD p.o., 4 day, initial 435 ± 11 g) was 430 ± 10 g, the “BW changes vs veh” value ([1]; 0.3 and 1 mg/kg dosing groups, 4 day) was “No statistically significant differences” and the Ki (human CB2 receptor; [3H]CP-55940, ± SEM (n), read-out: Ki, competition binding, hCB2) was 15700 ± 6170 nM. For the same compound, the “Selectivity (hCB2 vs hCB1 binding Ki)” value (human CB2 receptor; difference in binding Ki values) was > 30,000 fold, the Ki [2] was 0.43 ± 0.13 nM and the “Decrease in FI compared to veh.” value ([3]; 0.3 mg/kg p.o.) was 25%. For the same compound, the “Decrease in FI compared to veh.” value ([3]; 1 mg/kg p.o.) was 84%, the “Decrease in FI compared to veh.” value ([3]; 3 mg/kg p.o.) was 94% and the EC50 ([3]; Rattus norvegicus, unbound plasma concentration (Cave, fu, p, 0-2.5 hr), cumulative FI at 2.5 hr post dose, read-out: Unbound EC50, reduction of food intake) was 0.5 nM.
